Results reported in the supplement of paper PMC10307832.

compound: COc1nc(N)nc2c1ncn2[C@@H]1O[C@H](CO)[C@@H](O)[C@@H]1O [Nelarabine]; assay: relative viability (nuclei count vs DMSO), 5 days (fraction); higher = more cells survive; conditions: 1 µM
Summary of the method: (§1)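 Acceptance criteria were a control CV below 25% and at least one doubling per plate. Lung cancer cell lines in 1536-well plates got five library-drug doses (not always all listed) √10 apart by pinning and were left 5 days with no medium change. Viability divides treated-well nuclei by vehicle-well nuclei and is the median across plates. Nuclei were counted by MetaXpress from 4× Hoechst images.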

Cell Line	relative viability
CAL-12T	1.05
COR-L23	1.07
COR-L 105	1.04
Calu-6	1.1
ChaGo-K-1	0.962
EBC-1	0.975
EKVX	0.968
EPLC-272H	0.881
H3255	0.97
HARA	1.01
HCC-15	1.06
HCC-44	0.867
HCC-78	0.932
HCC-366	1.02
HCC-827	0.823
HOP-62	1.01
IA-LM	0.971

Cell Line	relative viability
LC-2-ad	0.989
LCLC-97TM1	0.878
LCLC-103H	1.07
LK-2	1.14
LOU-NH91	0.956
LU99A	1.07
LXF-289	0.995
NCI-H23	0.96
NCI-H322M	0.923
NCI-H358	1.05
NCI-H441	1.09
NCI-H460	1
NCI-H522	1.05
NCI-H1623	0.931
NCI-H1648	0.881
NCI-H2342	0.99
SW 900	0.896

compound: C=CCn1c(=O)c2cnc(Nc3ccc(N4CCN(C)CC4)cc3)nc2n1-c1cccc(C(C)(C)O)n1 [Adavosertib]; assay: as above; conditions: 0.01 µM
Summary of the method: as §1

Cell Line	relative viability
201T	0.973
A549	0.933
A-427	1.02
ABC-1	0.885
BEN	0.886
CAL-12T	0.948
COR-L23	1.14
COR-L 105	0.865
Calu-6	1.03
ChaGo-K-1	0.947
EBC-1	0.974
EKVX	0.975
EPLC-272H	0.853
H3255	0.888
HARA	0.929
HCC-15	0.979
HCC-44	0.927
HCC-78	0.85
HCC-366	1.04
HCC-827	1.04

Cell Line	relative viability
HOP-62	1.03
IA-LM	0.927
LC-2-ad	0.979
LCLC-97TM1	0.955
LCLC-103H	1.03
LK-2	0.994
LOU-NH91	0.956
LU99A	1.03
LXF-289	1.02
NCI-H23	0.925
NCI-H322M	0.85
NCI-H358	0.838
NCI-H441	1.16
NCI-H460	1.03
NCI-H522	1.04
NCI-H1623	0.895
NCI-H1648	0.907
NCI-H2342	1.01
SW 900	0.738

same assay, conditions: 0.03162 µM

Cell Line	relative viability
201T	1.02
A549	0.984
A-427	1.02
ABC-1	0.893
BEN	1.04
CAL-12T	1.07
COR-L23	1.02
COR-L 105	0.885
Calu-6	1.03
ChaGo-K-1	0.995
EBC-1	1.02
EKVX	0.967
EPLC-272H	0.961
H3255	1.07
HARA	1.04
HCC-15	1.05
HCC-44	0.987
HCC-78	0.973
HCC-366	1.05
HCC-827	1.06

Cell Line	relative viability
HOP-62	1.1
IA-LM	0.953
LC-2-ad	1.02
LCLC-97TM1	1.02
LCLC-103H	0.981
LK-2	1.16
LOU-NH91	0.992
LU99A	0.977
LXF-289	0.988
NCI-H23	0.98
NCI-H322M	0.953
NCI-H358	0.785
NCI-H441	1.01
NCI-H460	1.01
NCI-H522	0.975
NCI-H1623	0.915
NCI-H1648	0.847
NCI-H2342	1.02
SW 900	1.07

same assay, conditions: 0.1 µM

Cell Line	relative viability
201T	0.981
A549	1
A-427	1.05
ABC-1	0.948
BEN	1.06
CAL-12T	1.1
COR-L23	1.03
COR-L 105	0.807
Calu-6	1.05
ChaGo-K-1	1.05
EBC-1	1.07
EKVX	0.955
EPLC-272H	0.757
H3255	1.02
HARA	1.01
HCC-15	1.07
HCC-44	0.971
HCC-78	1.03
HCC-366	0.998
HCC-827	1.08

Cell Line	relative viability
HOP-62	1.08
IA-LM	1
LC-2-ad	1.01
LCLC-97TM1	1.11
LCLC-103H	0.954
LK-2	1.08
LOU-NH91	0.974
LU99A	0.894
LXF-289	1.01
NCI-H23	0.659
NCI-H322M	0.845
NCI-H358	0.752
NCI-H441	1.19
NCI-H460	1.02
NCI-H522	1.05
NCI-H1623	0.949
NCI-H1648	0.838
NCI-H2342	0.986
SW 900	0.885

same assay, conditions: 0.3162 µM

Cell Line	relative viability
201T	1.04
A549	1.01
A-427	0.894
ABC-1	0.96
BEN	1.09
CAL-12T	0.856
COR-L23	0.585
